In the supplement of paper PMC10307832 one finds relative viability data, which are given here for four cell lines.

Test in all cases: relative viability (nuclei count vs DMSO), 5 days (fraction); higher = more cells survive
Compound in the experiment “Gemcitabine + Trametinib”: Nc1ccn([C@@H]2O[C@H](CO)[C@@H](O)C2(F)F)c(=O)n1 [Gemcitabine] + CC(=O)Nc1cccc(-n2c(=O)n(C3CC3)c(=O)c3c(Nc4ccc(I)cc4F)n(C)c(=O)c(C)c32)c1 [Trametinib] (partner 0.02 µM)
In outline:
(§1)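 Lung cancer cell lines in 1536-well plates got either a single drug or a fixed anchor-drug dose together with five library-drug doses (not always all listed) in √10 steps, by pin tool, on the day after seeding. Nuclei were counted after 5 days, and relative viability is the treated-to-vehicle ratio of nuclei counts. Values are medians of duplicate plates.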

Compound in the experiment “Gemcitabine + Navitoclax”: Nc1ccn([C@@H]2O[C@H](CO)[C@@H](O)C2(F)F)c(=O)n1 [Gemcitabine] + CC1(C)CCC(c2ccc(Cl)cc2)=C(CN2CCN(c3ccc(C(=O)NS(=O)(=O)c4ccc(N[C@H](CCN5CCOCC5)CSc5ccccc5)c(S(=O)(=O)C(F)(F)F)c4)cc3)CC2)C1 [Navitoclax] (partner 0.5 µM)
The procedure, abridged: as §1

Compound in the experiment “Gemcitabine + Phenformin”: Nc1ccn([C@@H]2O[C@H](CO)[C@@H](O)C2(F)F)c(=O)n1 [Gemcitabine] + N=C(N)NC(=N)NCCc1ccccc1 [Phenformin] (partner 250 µM)
The procedure, abridged:
as §1

Compound in the experiment “Gemcitabine + Pemetrexed”: Nc1ccn([C@@H]2O[C@H](CO)[C@@H](O)C2(F)F)c(=O)n1 [Gemcitabine] + Nc1nc2[nH]cc(CCc3ccc(C(=O)N[C@@H](CCC(=O)O)C(=O)O)cc3)c2c(=O)[nH]1 [Pemetrexed] (partner 0.2 µM)
In outline: as §1

On to SK-MES-1, for which the relative viability is 0.605 in the experiment with Gemcitabine + Trametinib (first compound 0.001 µM); 0.551 in the experiment with Gemcitabine + Trametinib (first compound 0.003162 µM); 0.25 with Gemcitabine + Trametinib (first compound 0.01 µM); 0.237 with Gemcitabine + Trametinib (first compound 0.03162 µM); 0.178 with Gemcitabine + Trametinib (first compound 0.1 µM); 0.929 in the experiment with Gemcitabine + Navitoclax (first compound 0.001 µM). The relative viability with Gemcitabine + Navitoclax (first compound 0.003162 µM) worked out at 0.723; with Gemcitabine + Navitoclax (first compound 0.01 µM), 0.158; with Gemcitabine + Navitoclax (first compound 0.03162 µM), 0.0905; in the experiment with Gemcitabine + Navitoclax (first compound 0.1 µM), 0.077; in the experiment with Gemcitabine + Phenformin (first compound 0.001 µM) it was 0.552; in the experiment with Gemcitabine + Phenformin (first compound 0.003162 µM), 0.249. In addition, the relative viability in the experiment with Gemcitabine + Phenformin (first compound 0.01 µM) amounted to 0.191; with Gemcitabine + Phenformin (first compound 0.03162 µM), 0.158; with Gemcitabine + Phenformin (first compound 0.1 µM), 0.154; with Gemcitabine + Pemetrexed (first compound 0.001 µM), 0.804; in the experiment with Gemcitabine + Pemetrexed (first compound 0.003162 µM), 0.271; in the experiment with Gemcitabine + Pemetrexed (first compound 0.01 µM) it was 0.2. Also, the relative viability with Gemcitabine + Pemetrexed (first compound 0.03162 µM) worked out at 0.201; in the experiment with Gemcitabine + Pemetrexed (first compound 0.1 µM) it was 0.173.

Take A-427: the relative viability in the experiment with Gemcitabine + Trametinib (first compound 0.001 µM) turned out to be 0.704; with Gemcitabine + Trametinib (first compound 0.003162 µM) it was 0.799; with Gemcitabine + Trametinib (first compound 0.01 µM) it was 0.521; with Gemcitabine + Trametinib (first compound 0.03162 µM), 0.356; in the experiment with Gemcitabine + Trametinib (first compound 0.1 µM), 0.223; with Gemcitabine + Navitoclax (first compound 0.001 µM), 0.918. The relative viability with Gemcitabine + Navitoclax (first compound 0.003162 µM) is 0.907; with Gemcitabine + Navitoclax (first compound 0.01 µM), 0.719; with Gemcitabine + Navitoclax (first compound 0.03162 µM), 0.189; in the experiment with Gemcitabine + Navitoclax (first compound 0.1 µM) it was 0.124; with Gemcitabine + Phenformin (first compound 0.001 µM) it was 0.328; with Gemcitabine + Phenformin (first compound 0.003162 µM) it was 0.273. The relative viability in the experiment with Gemcitabine + Phenformin (first compound 0.01 µM) amounted to 0.16; in the experiment with Gemcitabine + Phenformin (first compound 0.03162 µM), 0.178; with Gemcitabine + Phenformin (first compound 0.1 µM), 0.117; with Gemcitabine + Pemetrexed (first compound 0.001 µM), 0.986; with Gemcitabine + Pemetrexed (first compound 0.003162 µM) it was 0.93; with Gemcitabine + Pemetrexed (first compound 0.01 µM), 0.851. Also, the values for the relative viability with Gemcitabine + Pemetrexed (first compound 0.03162 µM) and with Gemcitabine + Pemetrexed (first compound 0.1 µM) were 0.351 and 0.249, respectively.

As for NCI-H322M, the relative viability in the experiment with Gemcitabine + Trametinib (first compound 0.001 µM) stood at 0.47; in the experiment with Gemcitabine + Trametinib (first compound 0.003162 µM), 0.327; with Gemcitabine + Trametinib (first compound 0.01 µM), 0.394; in the experiment with Gemcitabine + Trametinib (first compound 0.03162 µM), 0.382; with Gemcitabine + Trametinib (first compound 0.1 µM), 0.385; in the experiment with Gemcitabine + Navitoclax (first compound 0.001 µM), 0.96. Moreover, the relative viability with Gemcitabine + Navitoclax (first compound 0.003162 µM) is 0.52; with Gemcitabine + Navitoclax (first compound 0.01 µM), 0.286; with Gemcitabine + Navitoclax (first compound 0.03162 µM) it was 0.207; in the experiment with Gemcitabine + Navitoclax (first compound 0.1 µM), 0.228; in the experiment with Gemcitabine + Phenformin (first compound 0.001 µM), 0.635; with Gemcitabine + Phenformin (first compound 0.003162 µM), 0.378. The relative viability with Gemcitabine + Phenformin (first compound 0.01 µM) amounted to 0.288; with Gemcitabine + Phenformin (first compound 0.03162 µM), 0.334; in the experiment with Gemcitabine + Phenformin (first compound 0.1 µM), 0.268; with Gemcitabine + Pemetrexed (first compound 0.001 µM) it was 0.658; with Gemcitabine + Pemetrexed (first compound 0.003162 µM), 0.367; with Gemcitabine + Pemetrexed (first compound 0.01 µM), 0.273. Moreover, the relative viability worked out at 0.329 with Gemcitabine + Pemetrexed (first compound 0.03162 µM) and 0.363 with Gemcitabine + Pemetrexed (first compound 0.1 µM).

In the case of HCC-366, the relative viability with Gemcitabine + Trametinib (first compound 0.001 µM) came out at 0.284; with Gemcitabine + Trametinib (first compound 0.003162 µM) it was 0.392; with Gemcitabine + Trametinib (first compound 0.01 µM), 0.0497; with Gemcitabine + Trametinib (first compound 0.03162 µM), 0.0318; in the experiment with Gemcitabine + Trametinib (first compound 0.1 µM), 0.0203; with Gemcitabine + Navitoclax (first compound 0.001 µM) it was 1.03. The relative viability in the experiment with Gemcitabine + Navitoclax (first compound 0.003162 µM) came out at 1.01; with Gemcitabine + Navitoclax (first compound 0.01 µM), 0.656; in the experiment with Gemcitabine + Navitoclax (first compound 0.03162 µM), 0.014; with Gemcitabine + Navitoclax (first compound 0.1 µM), 0.0109; with Gemcitabine + Phenformin (first compound 0.001 µM), 0.622; in the experiment with Gemcitabine + Phenformin (first compound 0.003162 µM), 0.662. Also, the relative viability with Gemcitabine + Phenformin (first compound 0.01 µM) stood at 0.144; in the experiment with Gemcitabine + Phenformin (first compound 0.03162 µM) it was 0.0348; with Gemcitabine + Phenformin (first compound 0.1 µM), 0.0327; with Gemcitabine + Pemetrexed (first compound 0.001 µM) it was 0.155; with Gemcitabine + Pemetrexed (first compound 0.003162 µM) it was 0.212; in the experiment with Gemcitabine + Pemetrexed (first compound 0.01 µM) it was 0.189. The relative viability in the experiment with Gemcitabine + Pemetrexed (first compound 0.03162 µM) was 0.0374; with Gemcitabine + Pemetrexed (first compound 0.1 µM) it was 0.0257.
